Drawing on ChEMBL document CHEMBL3797068, “eCF309: a potent, selective and cell-permeable mTOR inhibitor” (Medchemcomm, 2016), this text covers IC50, Activity and inhibition for 1 compound.

SMILES strings stand for the structures. Activity calls are given as the source filed them. The calls are words filed in the database; no cut-off is given here.

The IC50 is the concentration at which inhibition is half-maximal. The term inhibition denotes the share of the control response that was lost under treatment. Higher therefore signals a strong effect.

For experiment [1], the target named is Proto-oncogene tyrosine-protein kinase Src (Homo sapiens, UniProt P12931). Description: Inhibition of human SRC using (poly [Glu, Tyr] 4:1) as substrate assessed as incorporation of 33P in substrate by [gamma33P] ATP-based kinase assay.
Experiment [2] concerns the target T1, Phosphatidylinositol 4,5-bisphosphate 3-kinase catalytic subunit beta isoform (Homo sapiens, UniProt P42338). Description: Inhibition of PI3Kbeta (unknown origin) using (poly [Glu, Tyr] 4:1) as substrate assessed as incorporation of 33P in substrate by [gamma33P] ATP-based kinase assay.
Experiment [3] addresses T2, DNA-dependent protein kinase catalytic subunit (Homo sapiens, UniProt P78527). Description: Inhibition of human DNA-PK using (poly [Glu, Tyr] 4:1) as substrate assessed as incorporation of 33P in substrate by [gamma33P] ATP-based kinase assay.
The target of experiment [4] is T3, Phosphatidylinositol 4,5-bisphosphate 3-kinase catalytic subunit alpha isoform (Homo sapiens, UniProt P42336). Description: Inhibition of PI3Kalpha (unknown origin) using (poly [Glu, Tyr] 4:1) as substrate assessed as incorporation of 33P in substrate by [gamma33P] ATP-based kinase assay.
T3 sequence (P42336 whole entry, canonical isoform): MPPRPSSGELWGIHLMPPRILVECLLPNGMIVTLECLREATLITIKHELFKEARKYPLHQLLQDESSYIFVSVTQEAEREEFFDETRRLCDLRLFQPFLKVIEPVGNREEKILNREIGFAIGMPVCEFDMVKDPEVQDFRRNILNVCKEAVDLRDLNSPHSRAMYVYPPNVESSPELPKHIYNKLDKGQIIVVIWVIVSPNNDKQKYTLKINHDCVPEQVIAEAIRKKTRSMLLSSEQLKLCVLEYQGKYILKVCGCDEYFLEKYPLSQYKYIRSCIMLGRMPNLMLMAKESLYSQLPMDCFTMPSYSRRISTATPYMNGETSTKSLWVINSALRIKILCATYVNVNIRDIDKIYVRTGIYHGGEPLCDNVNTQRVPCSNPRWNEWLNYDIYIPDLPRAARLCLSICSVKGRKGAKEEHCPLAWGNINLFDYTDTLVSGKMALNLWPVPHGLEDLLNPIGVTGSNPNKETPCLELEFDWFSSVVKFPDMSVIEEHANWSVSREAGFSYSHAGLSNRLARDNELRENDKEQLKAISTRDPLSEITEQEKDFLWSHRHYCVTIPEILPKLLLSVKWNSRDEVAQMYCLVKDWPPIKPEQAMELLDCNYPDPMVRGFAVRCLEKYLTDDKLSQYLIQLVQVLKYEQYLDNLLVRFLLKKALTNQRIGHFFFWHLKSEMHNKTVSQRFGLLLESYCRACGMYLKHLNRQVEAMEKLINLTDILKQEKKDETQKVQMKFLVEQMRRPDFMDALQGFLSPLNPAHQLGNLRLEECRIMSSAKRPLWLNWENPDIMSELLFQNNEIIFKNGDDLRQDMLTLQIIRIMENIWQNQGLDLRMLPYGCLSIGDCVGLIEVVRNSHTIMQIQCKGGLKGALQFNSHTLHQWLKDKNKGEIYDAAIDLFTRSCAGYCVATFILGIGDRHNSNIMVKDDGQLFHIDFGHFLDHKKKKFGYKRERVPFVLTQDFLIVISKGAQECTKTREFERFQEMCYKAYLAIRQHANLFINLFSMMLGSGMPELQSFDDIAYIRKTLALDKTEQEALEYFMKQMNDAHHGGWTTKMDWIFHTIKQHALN
Experiment [5] relates to MCF7. Description: Cell cycle arrest in human MCF7 cells assessed as increase in G0/G1 population after 24 hrs by Hoechst 33342 staining-based fluorescence analysis. The experiment is classed as functional.
Experiment [6] concerns the target T2, DNA-dependent protein kinase catalytic subunit. Description: Inhibition of human DNA-PK at 10 uM by kinome profiling method.
The target of experiment [7] is Mast/stem cell growth factor receptor Kit (Homo sapiens, UniProt P10721). Description: Inhibition of human KIT using (poly [Glu, Tyr] 4:1) as substrate assessed as incorporation of 33P in substrate by [gamma33P] ATP-based kinase assay.
Experiment [8] addresses T3, Phosphatidylinositol 4,5-bisphosphate 3-kinase catalytic subunit alpha isoform. As to the kind of experiment: Inhibition of PI3Kalpha (unknown origin) using PIP2 as substrate by HTRF assay. Background: TR-FRET usually uses a lanthanide donor and a delayed reading to cut background.
The nature of experiment [9]: Cell cycle arrest in human PC3 cells assessed as increase in G0/G1 population after 24 hrs by Hoechst 33342 staining-based fluorescence analysis. Format: functional. To be noted: PC-3.
Experiment [10] deals with Phosphatidylinositol 4,5-bisphosphate 3-kinase catalytic subunit gamma isoform (Homo sapiens, UniProt P48736). Description: Inhibition of PI3Kgamma (unknown origin) using (poly [Glu, Tyr] 4:1) as substrate assessed as incorporation of 33P in substrate by [gamma33P] ATP-based kinase assay.
The target of experiment [11] is T1, Phosphatidylinositol 4,5-bisphosphate 3-kinase catalytic subunit beta isoform. As to the kind of experiment: Inhibition of PI3Kbeta (unknown origin) using PIP2 as substrate by HTRF assay.
The target of experiment [12] is T4, Phosphatidylinositol 4,5-bisphosphate 3-kinase catalytic subunit delta isoform (Homo sapiens, UniProt O00329).
T4 sequence (O00329 whole entry): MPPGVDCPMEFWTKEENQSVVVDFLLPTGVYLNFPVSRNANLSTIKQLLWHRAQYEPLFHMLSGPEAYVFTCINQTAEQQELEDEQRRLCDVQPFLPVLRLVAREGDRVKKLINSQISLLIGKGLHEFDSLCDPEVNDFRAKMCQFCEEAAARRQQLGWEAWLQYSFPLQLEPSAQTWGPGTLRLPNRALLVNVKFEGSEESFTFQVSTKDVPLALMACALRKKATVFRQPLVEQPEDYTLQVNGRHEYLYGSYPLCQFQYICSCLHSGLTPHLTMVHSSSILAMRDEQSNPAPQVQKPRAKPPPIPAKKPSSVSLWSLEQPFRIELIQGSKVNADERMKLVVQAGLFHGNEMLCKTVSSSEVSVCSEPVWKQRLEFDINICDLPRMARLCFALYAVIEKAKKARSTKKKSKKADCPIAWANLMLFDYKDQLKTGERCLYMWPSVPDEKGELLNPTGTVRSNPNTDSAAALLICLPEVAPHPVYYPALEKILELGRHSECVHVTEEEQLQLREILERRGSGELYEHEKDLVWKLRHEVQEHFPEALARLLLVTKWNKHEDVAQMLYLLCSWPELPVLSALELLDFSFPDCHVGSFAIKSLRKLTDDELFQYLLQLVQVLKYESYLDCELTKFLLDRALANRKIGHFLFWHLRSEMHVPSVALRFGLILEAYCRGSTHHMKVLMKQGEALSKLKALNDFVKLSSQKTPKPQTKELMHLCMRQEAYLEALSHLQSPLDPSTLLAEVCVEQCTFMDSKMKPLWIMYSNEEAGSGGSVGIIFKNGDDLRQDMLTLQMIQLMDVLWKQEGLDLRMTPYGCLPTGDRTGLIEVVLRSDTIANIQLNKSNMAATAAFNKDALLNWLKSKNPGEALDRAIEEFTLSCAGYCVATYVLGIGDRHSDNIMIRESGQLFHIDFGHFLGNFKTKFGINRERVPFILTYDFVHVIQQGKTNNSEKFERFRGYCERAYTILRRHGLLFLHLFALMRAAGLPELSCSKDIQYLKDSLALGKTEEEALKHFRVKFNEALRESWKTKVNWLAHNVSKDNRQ
Description: Inhibition of PI3Kdelta (unknown origin) using PIP2 as substrate by HTRF assay.

T2 sequence (P78527 whole entry, canonical isoform): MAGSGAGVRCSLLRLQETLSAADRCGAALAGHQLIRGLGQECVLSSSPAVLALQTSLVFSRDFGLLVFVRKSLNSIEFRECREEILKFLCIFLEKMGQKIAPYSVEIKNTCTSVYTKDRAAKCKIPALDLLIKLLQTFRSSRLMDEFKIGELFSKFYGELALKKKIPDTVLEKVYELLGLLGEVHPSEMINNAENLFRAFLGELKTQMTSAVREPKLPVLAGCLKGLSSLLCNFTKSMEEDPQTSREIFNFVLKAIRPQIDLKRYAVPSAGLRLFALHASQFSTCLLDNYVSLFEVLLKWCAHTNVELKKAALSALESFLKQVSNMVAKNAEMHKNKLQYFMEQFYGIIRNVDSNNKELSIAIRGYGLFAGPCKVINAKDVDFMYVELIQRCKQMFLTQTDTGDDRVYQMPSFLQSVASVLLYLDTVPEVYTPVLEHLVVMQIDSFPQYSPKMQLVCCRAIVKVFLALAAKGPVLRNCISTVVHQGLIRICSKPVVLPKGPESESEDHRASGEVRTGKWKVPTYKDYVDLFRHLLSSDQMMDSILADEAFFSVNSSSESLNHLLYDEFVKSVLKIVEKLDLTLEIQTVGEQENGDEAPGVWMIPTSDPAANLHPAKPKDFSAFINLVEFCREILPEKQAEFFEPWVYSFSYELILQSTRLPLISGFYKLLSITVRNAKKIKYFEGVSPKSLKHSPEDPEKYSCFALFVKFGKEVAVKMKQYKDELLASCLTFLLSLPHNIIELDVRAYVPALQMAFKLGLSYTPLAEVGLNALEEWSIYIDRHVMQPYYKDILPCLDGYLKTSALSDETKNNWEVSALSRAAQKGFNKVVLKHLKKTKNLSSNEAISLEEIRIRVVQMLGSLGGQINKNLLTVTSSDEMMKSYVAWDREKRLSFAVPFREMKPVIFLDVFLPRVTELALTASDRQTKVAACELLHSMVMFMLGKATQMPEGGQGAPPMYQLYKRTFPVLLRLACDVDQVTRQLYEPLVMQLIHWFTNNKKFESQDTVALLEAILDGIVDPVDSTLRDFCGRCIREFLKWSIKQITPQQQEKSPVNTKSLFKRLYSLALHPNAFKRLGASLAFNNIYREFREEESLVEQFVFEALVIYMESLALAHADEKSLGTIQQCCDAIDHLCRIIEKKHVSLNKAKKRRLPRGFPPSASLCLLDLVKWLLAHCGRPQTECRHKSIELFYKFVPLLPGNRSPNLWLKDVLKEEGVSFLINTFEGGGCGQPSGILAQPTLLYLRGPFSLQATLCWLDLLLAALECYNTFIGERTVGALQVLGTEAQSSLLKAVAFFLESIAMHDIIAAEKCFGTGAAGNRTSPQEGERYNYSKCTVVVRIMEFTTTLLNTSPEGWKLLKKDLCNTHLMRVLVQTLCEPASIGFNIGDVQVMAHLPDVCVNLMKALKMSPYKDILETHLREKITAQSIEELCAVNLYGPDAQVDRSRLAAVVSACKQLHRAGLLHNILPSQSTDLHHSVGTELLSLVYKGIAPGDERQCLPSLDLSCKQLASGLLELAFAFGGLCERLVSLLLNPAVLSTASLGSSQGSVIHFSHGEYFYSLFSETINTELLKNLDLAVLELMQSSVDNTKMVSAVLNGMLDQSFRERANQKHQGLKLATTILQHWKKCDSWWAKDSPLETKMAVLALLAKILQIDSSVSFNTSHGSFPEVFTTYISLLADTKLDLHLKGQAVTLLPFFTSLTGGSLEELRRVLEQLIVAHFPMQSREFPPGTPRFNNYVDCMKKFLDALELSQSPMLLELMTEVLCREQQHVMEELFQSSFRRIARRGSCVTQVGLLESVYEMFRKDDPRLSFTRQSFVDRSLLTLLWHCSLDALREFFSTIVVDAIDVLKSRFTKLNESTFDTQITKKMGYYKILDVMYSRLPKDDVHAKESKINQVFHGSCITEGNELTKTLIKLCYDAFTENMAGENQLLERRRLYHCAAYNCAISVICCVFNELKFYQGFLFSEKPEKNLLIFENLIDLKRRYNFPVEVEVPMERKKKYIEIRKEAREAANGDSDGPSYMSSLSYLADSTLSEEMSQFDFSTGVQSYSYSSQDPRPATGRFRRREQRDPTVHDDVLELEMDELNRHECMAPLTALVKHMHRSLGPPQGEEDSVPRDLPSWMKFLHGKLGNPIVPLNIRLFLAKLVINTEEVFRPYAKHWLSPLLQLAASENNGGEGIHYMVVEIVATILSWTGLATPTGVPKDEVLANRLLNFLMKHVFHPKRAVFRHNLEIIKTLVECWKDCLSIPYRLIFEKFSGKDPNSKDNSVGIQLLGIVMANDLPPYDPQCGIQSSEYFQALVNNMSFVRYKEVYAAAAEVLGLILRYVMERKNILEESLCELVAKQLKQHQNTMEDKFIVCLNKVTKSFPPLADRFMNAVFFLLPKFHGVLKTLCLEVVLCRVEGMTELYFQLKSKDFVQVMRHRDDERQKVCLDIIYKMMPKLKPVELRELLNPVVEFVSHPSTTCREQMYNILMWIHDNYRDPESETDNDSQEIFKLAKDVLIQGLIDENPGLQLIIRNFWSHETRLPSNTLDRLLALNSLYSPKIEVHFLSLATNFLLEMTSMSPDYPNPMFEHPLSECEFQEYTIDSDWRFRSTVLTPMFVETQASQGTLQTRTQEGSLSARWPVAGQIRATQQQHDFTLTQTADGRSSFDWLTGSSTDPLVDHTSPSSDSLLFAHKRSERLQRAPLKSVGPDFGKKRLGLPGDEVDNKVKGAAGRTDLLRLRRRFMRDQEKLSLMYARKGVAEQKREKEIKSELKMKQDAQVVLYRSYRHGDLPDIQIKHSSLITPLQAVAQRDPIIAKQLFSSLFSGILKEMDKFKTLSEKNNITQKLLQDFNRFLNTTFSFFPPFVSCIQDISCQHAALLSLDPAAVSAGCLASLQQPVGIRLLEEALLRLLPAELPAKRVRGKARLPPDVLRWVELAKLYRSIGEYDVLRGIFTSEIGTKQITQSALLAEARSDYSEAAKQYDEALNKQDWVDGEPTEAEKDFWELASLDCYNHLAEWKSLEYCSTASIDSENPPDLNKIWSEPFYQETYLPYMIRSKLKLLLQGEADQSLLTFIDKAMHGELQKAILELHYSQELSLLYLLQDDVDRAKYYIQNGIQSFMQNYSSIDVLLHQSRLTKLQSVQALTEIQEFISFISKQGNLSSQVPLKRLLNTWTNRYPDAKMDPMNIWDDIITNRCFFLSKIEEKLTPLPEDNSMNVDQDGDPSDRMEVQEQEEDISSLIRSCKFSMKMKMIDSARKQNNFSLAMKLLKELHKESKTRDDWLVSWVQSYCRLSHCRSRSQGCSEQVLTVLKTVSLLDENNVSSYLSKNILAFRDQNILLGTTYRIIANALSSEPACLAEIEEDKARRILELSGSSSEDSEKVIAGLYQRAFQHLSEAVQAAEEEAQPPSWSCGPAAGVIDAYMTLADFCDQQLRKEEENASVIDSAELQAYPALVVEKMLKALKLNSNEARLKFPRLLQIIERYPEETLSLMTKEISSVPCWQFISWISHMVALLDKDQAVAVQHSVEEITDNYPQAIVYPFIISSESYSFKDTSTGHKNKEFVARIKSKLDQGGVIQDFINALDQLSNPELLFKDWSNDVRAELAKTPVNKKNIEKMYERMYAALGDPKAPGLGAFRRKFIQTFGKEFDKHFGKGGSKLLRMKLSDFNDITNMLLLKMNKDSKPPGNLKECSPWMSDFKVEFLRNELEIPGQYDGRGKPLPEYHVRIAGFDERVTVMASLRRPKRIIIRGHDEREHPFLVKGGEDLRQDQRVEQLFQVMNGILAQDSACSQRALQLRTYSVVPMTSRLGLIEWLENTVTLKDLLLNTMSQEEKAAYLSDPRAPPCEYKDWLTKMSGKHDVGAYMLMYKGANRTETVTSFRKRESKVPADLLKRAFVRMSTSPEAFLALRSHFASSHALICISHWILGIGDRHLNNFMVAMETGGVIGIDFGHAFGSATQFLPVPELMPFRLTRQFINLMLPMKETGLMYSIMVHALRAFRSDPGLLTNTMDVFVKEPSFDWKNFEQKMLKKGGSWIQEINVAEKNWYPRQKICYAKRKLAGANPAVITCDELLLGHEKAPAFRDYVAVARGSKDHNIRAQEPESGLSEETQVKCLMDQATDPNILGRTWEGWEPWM

As for `CCOC(Cn1nc(-c2ccc3oc(N)nc3c2)c2c(N)ncnc21)OCC`, the IC50 was more than 100 µM in [1]; more than 100 µM in experiment [2]; 0.32 µM in experiment [3]; 0.981 µM in experiment [4]; more than 100 µM in experiment [7]; 0.981 µM in experiment [8]. Besides, the IC50 was 1.34 µM in experiment [10], more than 100 µM in [11] and 1.84 µM in experiment [12]. Besides, the outcome in [5] and in [9] was Active. Also, the inhibition in [6] is 90%.
